Reference: PubChem BioAssay (NCI)
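Assay format: 96-well plates, 48-hour exposure. Definition used: TGI = concentration required for complete inhibition of growth.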

Columns and labels:
Assay in all cases: NCI-60 cell line screen, 48 h
PC-3 prostate = system: PC-3 prostate
COLO 205 colon = system: COLO 205 colon
MDA-N = system: MDA-N
NCI/ADR-RES ovarian = system: NCI/ADR-RES ovarian
MOLT-4 leukemia = system: MOLT-4 leukemia
M14 melanoma = system: M14 melanoma
MDA-MB-231 breast = system: MDA-MB-231 breast
NCI-H23 lung = system: NCI-H23 lung
SF-539 CNS = system: SF-539 CNS
HOP-62 NSCLC = system: HOP-62 NSCLC
NCI-H522 lung = system: NCI-H522 lung
UO-31 renal = system: UO-31 renal
786-0 renal = system: 786-0 renal
CCRF-CEM leukemia = system: CCRF-CEM leukemia
OVCAR-3 ovarian = system: OVCAR-3 ovarian
MDA-MB-435 = system: MDA-MB-435
A549 NSCLC = system: A549 NSCLC
OVCAR-8 ovarian = system: OVCAR-8 ovarian
A498 renal = system: A498 renal
HCT-15 colon = system: HCT-15 colon
BT-549 breast = system: BT-549 breast
ACHN renal = system: ACHN renal
DU-145 prostate = system: DU-145 prostate
HT29 colon = system: HT29 colon
UACC-257 melanoma = system: UACC-257 melanoma
HCC-2998 colon = system: HCC-2998 colon
NCI-H460 lung = system: NCI-H460 lung
SK-MEL-28 melanoma = system: SK-MEL-28 melanoma
IGROV1 ovarian = system: IGROV1 ovarian
SK-MEL-2 melanoma = system: SK-MEL-2 melanoma
MALME-3M melanoma = system: MALME-3M melanoma
SK-MEL-5 melanoma = system: SK-MEL-5 melanoma
CAKI-1 renal = system: CAKI-1 renal
OVCAR-4 ovarian = system: OVCAR-4 ovarian
TK-10 renal = system: TK-10 renal
SF-295 CNS = system: SF-295 CNS
LOX IMVI melanoma = system: LOX IMVI melanoma
NCI-H226 lung = system: NCI-H226 lung
SNB-19 CNS = system: SNB-19 CNS
HS 578T breast = system: HS 578T breast
K-562 leukemia = system: K-562 leukemia
HOP-92 NSCLC = system: HOP-92 NSCLC
EKVX NSCLC = system: EKVX NSCLC
HCT-116 colon = system: HCT-116 colon
SNB-75 CNS = system: SNB-75 CNS
SF-268 CNS = system: SF-268 CNS
T-47D breast = system: T-47D breast
MCF7 breast = system: MCF7 breast
OVCAR-5 ovarian = system: OVCAR-5 ovarian
HL-60(TB) leukemia = system: HL-60(TB) leukemia
SN12C renal = system: SN12C renal
RPMI-8226 leukemia = system: RPMI-8226 leukemia
SW-620 colon = system: SW-620 colon
U251 CNS = system: U251 CNS
SK-OV-3 ovarian = system: SK-OV-3 ovarian
UACC-62 melanoma = system: UACC-62 melanoma
RXF 393 renal = system: RXF 393 renal
KM12 colon = system: KM12 colon
SR leukemia = system: SR leukemia

SMILES: c1ccc2c(c1)[C@@H]1O[C@@H]1[C@@]13O[C@@]21[C@H]1O[C@H]1c1ccccc13
- TGI (PC-3 prostate): 30 µM
- TGI (COLO 205 colon): 32.8 µM
- TGI (MDA-N): 32.6 µM
- TGI (NCI/ADR-RES ovarian): 39.6 µM
- TGI (MOLT-4 leukemia): > 100 µM
- TGI (M14 melanoma): 33.6 µM
- TGI (MDA-MB-231 breast): 33.6 µM
- TGI (NCI-H23 lung): 40.1 µM
- TGI (SF-539 CNS): 34.9 µM
- TGI (HOP-62 NSCLC): 30.8 µM
- TGI (NCI-H522 lung): 25.4 µM
- TGI (UO-31 renal): 51.1 µM
- TGI (786-0 renal): 30.1 µM
- TGI (CCRF-CEM leukemia): 24.3 µM
- TGI (OVCAR-3 ovarian): 32.1 µM
- TGI (MDA-MB-435): 28.7 µM
- TGI (A549 NSCLC): 47 µM
- TGI (OVCAR-8 ovarian): 39.6 µM
- TGI (A498 renal): 30.7 µM
- TGI (HCT-15 colon): 48.8 µM
- TGI (BT-549 breast): 30.3 µM
- TGI (ACHN renal): 28.9 µM
- TGI (DU-145 prostate): 29.2 µM
- TGI (HT29 colon): 51.9 µM
- TGI (UACC-257 melanoma): 37.2 µM
- TGI (HCC-2998 colon): 35.1 µM
- TGI (NCI-H460 lung): 74.9 µM
- TGI (SK-MEL-28 melanoma): 41.2 µM
- TGI (IGROV1 ovarian): 29.3 µM
- TGI (SK-MEL-2 melanoma): 37.5 µM
- TGI (MALME-3M melanoma): 26.3 µM
- TGI (SK-MEL-5 melanoma): 26.7 µM
- TGI (CAKI-1 renal): 23.2 µM
- TGI (OVCAR-4 ovarian): 26.8 µM
- TGI (TK-10 renal): 62.2 µM
- TGI (SF-295 CNS): 30.1 µM
- TGI (LOX IMVI melanoma): 27.7 µM
- TGI (NCI-H226 lung): 31.3 µM
- TGI (SNB-19 CNS): 40.1 µM
- TGI (HS 578T breast): 28.3 µM
- TGI (K-562 leukemia): 41.7 µM
- TGI (HOP-92 NSCLC): 23.4 µM
- TGI (EKVX NSCLC): 31.9 µM
- TGI (HCT-116 colon): 25.2 µM
- TGI (SNB-75 CNS): 27.2 µM
- TGI (SF-268 CNS): 28.3 µM
- TGI (T-47D breast): 57.8 µM
- TGI (MCF7 breast): > 100 µM
- TGI (OVCAR-5 ovarian): 34.8 µM
- TGI (HL-60(TB) leukemia): 41 µM
- TGI (SN12C renal): 38.2 µM
- TGI (RPMI-8226 leukemia): 33.7 µM
- TGI (SW-620 colon): 39.5 µM
- TGI (U251 CNS): 28.2 µM
- TGI (SK-OV-3 ovarian): 52.2 µM
- TGI (UACC-62 melanoma): 28.1 µM
- TGI (RXF 393 renal): 25.7 µM
- TGI (KM12 colon): 29.2 µM

SMILES: C(=N\Nc1nnc(-c2nnc(N/N=C/c3ccccc3)o2)o1)/c1ccccc1
- TGI (PC-3 prostate): > 10 µM
- TGI (COLO 205 colon): > 10 µM
- TGI (MDA-N): > 10 µM
- TGI (NCI/ADR-RES ovarian): > 10 µM
- TGI (MOLT-4 leukemia): > 10 µM
- TGI (M14 melanoma): > 10 µM
- TGI (MDA-MB-231 breast): > 10 µM
- TGI (NCI-H23 lung): > 10 µM
- TGI (SF-539 CNS): > 10 µM
- TGI (HOP-62 NSCLC): > 10 µM
- TGI (UO-31 renal): > 10 µM
- TGI (786-0 renal): > 10 µM
- TGI (CCRF-CEM leukemia): > 10 µM
- TGI (OVCAR-3 ovarian): > 10 µM
- TGI (MDA-MB-435): > 10 µM
- TGI (A549 NSCLC): > 10 µM
- TGI (OVCAR-8 ovarian): > 10 µM
- TGI (A498 renal): > 10 µM
- TGI (HCT-15 colon): > 10 µM
- TGI (SR leukemia): > 10 µM
- TGI (BT-549 breast): > 10 µM
- TGI (ACHN renal): > 10 µM
- TGI (DU-145 prostate): > 10 µM
- TGI (HT29 colon): > 10 µM
- TGI (UACC-257 melanoma): > 10 µM
- TGI (HCC-2998 colon): > 10 µM
- TGI (NCI-H460 lung): > 10 µM
- TGI (SK-MEL-28 melanoma): > 10 µM
- TGI (IGROV1 ovarian): > 10 µM
- TGI (MALME-3M melanoma): > 10 µM
- TGI (SK-MEL-5 melanoma): > 10 µM
- TGI (CAKI-1 renal): > 10 µM
- TGI (OVCAR-4 ovarian): > 10 µM
- TGI (TK-10 renal): > 10 µM
- TGI (SF-295 CNS): > 10 µM
- TGI (NCI-H226 lung): > 10 µM
- TGI (SNB-19 CNS): > 10 µM
- TGI (HS 578T breast): > 10 µM
- TGI (K-562 leukemia): > 10 µM
- TGI (HOP-92 NSCLC): > 10 µM
- TGI (EKVX NSCLC): > 10 µM
- TGI (HCT-116 colon): > 10 µM
- TGI (SF-268 CNS): > 10 µM
- TGI (T-47D breast): > 10 µM
- TGI (MCF7 breast): > 10 µM
- TGI (OVCAR-5 ovarian): > 10 µM
- TGI (HL-60(TB) leukemia): > 10 µM
- TGI (SN12C renal): > 10 µM
- TGI (RPMI-8226 leukemia): > 10 µM
- TGI (SW-620 colon): > 10 µM
- TGI (U251 CNS): > 10 µM
- TGI (UACC-62 melanoma): > 10 µM
- TGI (RXF 393 renal): > 10 µM
- TGI (KM12 colon): > 10 µM
